Reference: patent publication US9233093B2, “Composition and/or method for preventing recurrence of stroke” (MOCHIDA PHARMACEUTICALS CO., LTD., priority 2006, dated 2016)
Several values for one entry are separate records, joined by “and”; a condition that tells them apart may be missing. Equal values may be shown once.

Legend:
[1] = system: hyperlipidemia patients having history of stroke (onset/recurrence of stroke); assay: DELIS (Japan EPA Lipid Intervention Study) partial analysis: recurrence of stroke over 5 years in patients with history of stroke; format: in vivo, human; design: Inhibition Rate (%): concentration or dose not given beside the values; settings: for Incidence rate (%) of EPA-E group: TG less than 400 mg/dL; for Inhibition Rate (%): vs control group; for reduction of the incidence rate of stroke (in words): time course 1 to 5 years
Protocol: This trial is a partial analysis of the results obtained in DELIS (Japan EPA Lipid Intervention Study), a large scale clinical trial of high purity EPA preparation which was presented at the American College of Cardiology 2005 Annual Meeting.
Specifically, of the 18,645 subject patients in the DELIS trial (hyperlipidemia patients with serum T-Cho concentration of 250 mg/dl or more, at ages of 40 to 75 for male and […] to 75 for female; the patients within six months from the onset of stroke were excluded in order to exclude patients in the acute period of the stroke from the trial subjects) (EPA-E group (9,326 cases) and control group (9,319 cases)), 485 subjects from the EPA-E group and 457 subjects from the control group, having history of stroke (cerebral thrombosis, cerebral embolism, intracerebral hemorrhage, subarachnoid hemorrhage, and transient ischemic attack) were observed and analyzed for the recurrence of stroke during the period of 5 years from the start of the administration. Further, for the cases where serum TG/HDL-C ratio was known (but excluding the cases where TG value was 400 mg/dl or more), results from the subjects divided into three groups based on the serum TG/HDL-C ratio at the time of registration were also analyzed. The EPA-E group was orally administered with Epadel (Mochida Pharmaceutical Co., Ltd.) typically at an adult dose of 600 mg per administration and 3 times a day immediately after the meal. However, in the cases having abnormal serum TG, the dose could be increased up to 900 mg per administration and 3 times a day, depending on the abnormality. In both groups, pravastatin sodium (Mevalotin™ tablets and fine granules, Sankyo Co., Ltd.), simvastatin (Lipovas™ tablets, Banyu Pharmaceutical Co., Ltd.), or atorvastatin calcium hydrate (Lipitor™ tablets, Astellas Pharma Inc. and Pfizer) was used as a base drug (basal treatment), which was orally administered according to a predetermined dosage regimen.
The number of onset (recurrence) of stroke, the incidence rate (%), and the odds ratio for the EPA-E group in relation to the control group during the observation period of 5 years are shown in Table 1. The odds ratio was calculated by the equation of (incidence rate of the EPA-E group)/(incidence rate of the control group), and the inhibition rate of onset of stroke was calculated by the equation of {((incidence rate of stroke for the control group)−(incidence rate of stroke for the EPA-E group))/(incidence rate of stroke for the control group)}×100.
Further, the data described above were statistically analyzed by taking biases in the background (smoking habit, diabetes, etc.) between the groups into consideration.
Similarly, for the cases where serum TG/HDL-C ratio was known (but excluding the cases where TG value was 400 mg/dl or more), each of the three groups of subjects, which are divided based on the serum TG/HDL-C ratio at the time of registration, was analyzed on the number of onset (recurrence) of stroke, the incidence rate (%), and the odds ratio for the EPA-E group in relation to the control group during the observation period of 5 years, as shown in Table 4. The odds ratio was calculated by the equation of (incidence rate of the EPA-E group)/(incidence rate of the control group), and the inhibition rate of onset of stroke was calculated by the equation of {((incidence rate of stroke for the control group)−(incidence rate of stroke for the EPA-E group))/(incidence rate of stroke for the control group)}×100.

[2] = system: hyperlipidemia patients (cardiac events); settings: use in combination with statin; large scale clinical trial; cited from earlier work
[3] = after 1 year, serum TG/HDL-C ratio 3.75 or more
[4] = after 2 years, serum TG/HDL-C ratio 3.75 or more
[5] = after 3 years, serum TG/HDL-C ratio 3.75 or more
[6] = after 4 years, serum TG/HDL-C ratio 3.75 or more
[7] = after 5 years, serum TG/HDL-C ratio 3.75 or more
[8] = all patients with history of stroke, 5 years
[9] = cerebral thrombosis, patients with history of stroke, 5 years
[10] = serum TG/HDL-C ratio at registration less than 1, TG less than 400 mg/dl, 5 years
[11] = total of infarction type diseases, patients with history of stroke, 5 years

CC/C=C\C/C=C\C/C=C\C/C=C\C/C=C\CCCC(=O)OCC [EPA-E, ethyl icosapentate]
Incidence rate (%) in EPA-E group ([1]; after 1 year, all patients with history of stroke, analyzed taking background biases into consideration): 2.1% | Incidence rate (%) of EPA-E group [1, 3]: 1.5% | Inhibition Rate (%) [1, 3]: 17% | Incidence rate (%) in EPA-E group ([1]; after 2 years, all patients with history of stroke, bias-adjusted analysis): 3.6% | Inhibition Rate (%) ([1]; after 2 years, all patients with history of stroke): 8% | Incidence rate (%) of EPA-E group [1, 4]: 2.9% | Inhibition Rate (%) [1, 4]: 53% | Incidence rate (%) in EPA-E group ([1]; after 3 years, all patients with history of stroke, bias-adjusted analysis): 4.7% | Inhibition Rate (%) ([1]; after 3 years, all patients with history of stroke): 16% | Incidence rate (%) of EPA-E group [1, 5]: 4.4% | Inhibition Rate (%) [1, 5]: 29% | Incidence rate (%) in EPA-E group ([1]; after 4 years, all patients with history of stroke, bias-adjusted analysis): 5.7% | Inhibition Rate (%) ([1]; after 4 years, all patients with history of stroke): 35% | Incidence rate (%) of EPA-E group [1, 6]: 5.2% | Inhibition Rate (%) [1, 6]: 55% | Incidence rate (%) in EPA-E group ([1]; after 5 years, all patients with history of stroke, bias-adjusted analysis): 7.4% | Inhibition Rate (%) ([1]; after 5 years, all patients with history of stroke): 37% | Incidence rate (%) of EPA-E group [1, 7]: 7.4% | Inhibition Rate (%) [1, 7]: 48% | Odds ratio (incidence rate of EPA-E group/incidence rate of control group) [1, 8]: 0.648 | reduction of incidence rate of stroke compared with the control group [1, 8]: about 35% | Stroke cases/All cases ([1]; all patients with history of stroke, observation period of 5 years, Epadel 600 mg 3 times a day (up to 900 mg) plus statin base drug): 33/485 | reduction of the incidence rate of stroke (in words) ([1]; all patients with history of stroke): significant at 3 years or later after the start of the administration | Stroke cases/All cases, cerebral thrombosis [1, 9]: 13/485 | incidence rate, cerebral thrombosis [1, 9]: (2.9%) | number of cases and incidence rates of hemorrhage type diseases vs control group ([1]; hemorrhage type diseases, patients with history of stroke): lower | reduction of the incidence rate of stroke (in words) ([1]; patients with serum TG/HDL-C ratio 3.75 or more): significant at 3 years or later after the start of the administration | reduction of incidence rate of stroke compared to the control group ([1]; serum TG/HDL-C ratio 1 or more but less than 3.75, 5 years): about 36% | reduction of incidence rate of stroke compared to the control group ([1]; serum TG/HDL-C ratio 3.75 or more, 5 years): about 48% | Odds ratio (incidence rate of EPA-E group/incidence rate of control group) ([1]; serum TG/HDL-C ratio at registration 1 to 3.75, 5 years): 0.640 | Stroke cases/All cases ([1]; serum TG/HDL-C ratio at registration 1 to 3.75, TG less than 400 mg/dl, 5 years): 14/244 | Odds ratio (incidence rate of EPA-E group/incidence rate of control group) ([1]; serum TG/HDL-C ratio at registration 3.75 or more, 5 years): 0.519 | Stroke cases/All cases ([1]; serum TG/HDL-C ratio at registration 3.75 or more, TG less than 400 mg/dl, 5 years): 10/135 | Stroke cases/All cases [1, 10]: no onset of stroke was observed and 0/18 | incidence rate of stroke [1, 10]: (0.0) % | Stroke cases/All cases, total of infarctions [1, 11]: 28/485 | incidence rate, total of infarctions [1, 11]: (6.20) % | inhibiting cardiac events [2]: effective
